This note sets out measurements from patent US11292796B2 (SIGNAL PHARMACEUTICALS, LLC, priority 2008, dated 2022).

The target of this test is T1, mTOR (Homo sapiens, UniProt P42345).
T1 construct: purchased Invitrogen PR8683A
The experiment in a line: mTOR HTR-FRET assay. As to conditions: read-out: Act. Level (IC50 in mTor HTR-FRET assay). The format is biochemical. The procedure, abridged:
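Test compounds, taken from 10 mM DMSO stocks and diluted, were mixed with mTOR enzyme (0.200 μg/mL) in Tris buffer pH 7.4 with 100 mM NaCl, 0.1% Tween-20 and 1 mM DTT. ATP/substrate addition initiated the reaction, alongside compound-free controls.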

T1 sequence (P42345 1360-2549 limits assumed): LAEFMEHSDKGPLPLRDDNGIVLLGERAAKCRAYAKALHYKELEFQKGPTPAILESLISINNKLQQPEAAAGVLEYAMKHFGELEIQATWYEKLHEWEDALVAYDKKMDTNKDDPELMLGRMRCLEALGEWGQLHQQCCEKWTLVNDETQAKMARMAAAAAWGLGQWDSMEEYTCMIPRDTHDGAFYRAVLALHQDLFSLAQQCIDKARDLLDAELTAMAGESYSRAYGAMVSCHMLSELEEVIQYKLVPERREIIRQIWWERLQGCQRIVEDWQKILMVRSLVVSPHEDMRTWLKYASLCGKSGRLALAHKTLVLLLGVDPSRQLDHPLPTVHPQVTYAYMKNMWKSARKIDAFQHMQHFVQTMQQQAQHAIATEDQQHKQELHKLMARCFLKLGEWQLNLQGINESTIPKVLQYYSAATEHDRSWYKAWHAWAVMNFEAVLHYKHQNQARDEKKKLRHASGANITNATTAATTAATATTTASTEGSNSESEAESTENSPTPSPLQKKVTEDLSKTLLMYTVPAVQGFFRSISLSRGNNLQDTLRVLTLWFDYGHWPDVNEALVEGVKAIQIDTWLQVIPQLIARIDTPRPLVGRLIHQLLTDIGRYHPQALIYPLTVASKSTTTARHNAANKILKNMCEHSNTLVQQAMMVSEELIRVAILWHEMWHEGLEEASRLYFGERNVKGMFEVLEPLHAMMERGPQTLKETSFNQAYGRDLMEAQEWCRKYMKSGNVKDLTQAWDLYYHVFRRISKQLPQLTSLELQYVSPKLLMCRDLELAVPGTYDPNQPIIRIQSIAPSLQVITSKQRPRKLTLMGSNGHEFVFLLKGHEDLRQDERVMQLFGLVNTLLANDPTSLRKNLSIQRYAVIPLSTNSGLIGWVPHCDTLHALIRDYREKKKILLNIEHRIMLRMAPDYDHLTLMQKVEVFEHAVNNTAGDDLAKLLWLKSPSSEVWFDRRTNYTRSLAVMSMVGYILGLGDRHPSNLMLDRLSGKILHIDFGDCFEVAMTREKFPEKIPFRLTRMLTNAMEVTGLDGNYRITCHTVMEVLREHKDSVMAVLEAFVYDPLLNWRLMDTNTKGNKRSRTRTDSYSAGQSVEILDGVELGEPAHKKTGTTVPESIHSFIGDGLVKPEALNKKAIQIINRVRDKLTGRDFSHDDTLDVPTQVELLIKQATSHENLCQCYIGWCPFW

The IC50 is the concentration that gives 50% inhibition. Take `CO[C@H]1CC[C@H](CN2C(=O)CNc3ncc(-c4ccc(-c5nc[nH]n5)nc4)nc32)CC1` [Example 158, 7-(6-(1H-1,2,4-triazol-3-yl)pyridin-3-yl)-1-((trans-4-methoxycyclohexyl)methyl)-3,4-dihydropyrazino[2,3-b]pyrazin-2(1H)-one]: the half-inhibitory concentration (IC50) lay in the range of 0.005 to 250 nM.
The same measure for `O=C1CNc2ncc(-c3ccc(-c4nc[nH]n4)nc3)nc2N1C[C@H]1CC[C@H](O)CC1` [Example 159, 7-(6-(1H-1,2,4-triazol-3-yl)pyridin-3-yl)-1-((trans-4-hydroxycyclohexyl)methyl)-3,4-dihydropyrazino[2,3-b]pyrazin-2(1H)-one]: 0.005 to 250 nM.
As for `O=C1CNc2ncc(-c3ccc(-c4nc[nH]n4)nc3)nc2N1[C@H]1CC[C@@H](O)CC1` [Example 160, 7-(6-(1H-1,2,4-triazol-3-yl)pyridin-3-yl)-1-(cis-4-hydroxycyclohexyl)-3,4-dihydropyrazino[2,3-b]pyrazin-2(1H)-one], the IC50 is 0.005 to 250 nM.
Regarding `Cc1cc(-c2nc[nH]n2)c(F)cc1-c1cnc2c(n1)N([C@H]1CC[C@@H](O)CC1)C(=O)CN2` [Example 161, 7-(5-fluoro-2-methyl-4-(1H-1,2,4-triazol-3-yl)phenyl)-1-(cis-4-hydroxycyclohexyl)-3,4-dihydropyrazino[2,3-b]pyrazin-2(1H)-one], the IC50 was 0.005 to 250 nM.
The same measure for `O=C1CNc2ncc(-c3ccc(-c4nc[nH]n4)nc3)nc2N1C1CCOCC1` [Example 162, 7-(6-(1H-1,2,4-triazol-3-yl)pyridin-3-yl)-1-(tetrahydro-2H-pyran-4-yl)-3,4-dihydropyrazino[2,3-b]pyrazin-2(1H)-one]: 0.005 to 250 nM.
The figure for `COCCN1C(=O)CNc2ncc(-c3ccc(-c4nc[nH]n4)nc3)nc21` [Example 163, 7-(6-(1H-1,2,4-triazol-3-yl)pyridin-3-yl)-1-(2-methoxyethyl)-3,4-dihydropyrazino[2,3-b]pyrazin-2(1H)-one] is 0.005 to 250 nM.
The figure for `CCN1C(=O)CNc2ncc(-c3ccc(-c4nc[nH]n4)nc3)nc21` [Example 164, 7-(6-(1H-1,2,4-triazol-3-yl)pyridin-3-yl)-1-ethyl-3,4-dihydropyrazino[2,3-b]pyrazin-2(1H)-one] is 0.005 to 250 nM; for `Cc1cc(-c2nc[nH]n2)c(F)cc1-c1cnc2c(n1)N(C[C@H]1CC[C@@H](O)CC1)C(=O)CN2` [Example 165, 7-(5-fluoro-2-methyl-4-(1H-1,2,4-triazol-3-yl)phenyl)-1-((cis-4-hydroxycyclohexyl)methyl)-3,4-dihydropyrazino[2,3-b]pyrazin-2(1H)-one] it is 0.005 to 250 nM; for `Cc1cc(-c2nc[nH]n2)c(F)cc1-c1cnc2c(n1)N(C1CCOCC1)C(=O)CN2` [Example 166, 7-(5-fluoro-2-methyl-4-(1H-1,2,4-triazol-3-yl)phenyl)-1-(tetrahydro-2H-pyran-4-yl)-3,4-dihydropyrazino[2,3-b]pyrazin-2(1H)-one] it is 0.005 to 250 nM.
Consider `O=C1CNc2ncc(-c3cccc4[nH]ccc34)nc2N1CCC1CCOCC1` [Example 167, 7-(1H-indol-4-yl)-1-(2-(tetrahydro-2H-pyran-4-yl)ethyl)-3,4-dihydropyrazino[2,3-b]pyrazin-2(1H)-one], for which the concentration for half-maximal inhibition (IC50) was 250 to 500 nM.
The figure for `Cc1cc(-c2nc[nH]n2)c(F)cc1-c1cnc2c(n1)N(C[C@H]1CC[C@H](O)CC1)C(=O)CN2` [Example 168, 7-(5-fluoro-2-methyl-4-(1H-1,2,4-triazol-3-yl)phenyl)-1-((trans-4-hydroxycyclohexyl)methyl)-3,4-dihydropyrazino[2,3-b]pyrazin-2(1H)-one] is 0.005 to 250 nM; for `O=C1CNc2ncc(-c3ccc(-c4nc[nH]n4)nc3)nc2N1C[C@H]1CC[C@@H](O)CC1` [Example 169, 7-(6-(1H-1,2,4-triazol-3-yl)pyridin-3-yl)-1-((cis-4-hydroxycyclohexyl)methyl)-3,4-dihydropyrazino[2,3-b]pyrazin-2(1H)-one] it is 0.005 to 250 nM.
For `O=C1CNc2ncc(-c3ccc(-c4nc[nH]n4)nc3)nc2N1[C@H]1CC[C@H](O)CC1` [Example 170, 7-(6-(1H-1,2,4-triazol-3-yl)pyridin-3-yl)-1-(trans-4-hydroxycyclohexyl)-3,4-dihydropyrazino[2,3-b]pyrazin-2(1H)-one], the half-maximal inhibitory concentration (IC50) is 0.005 to 250 nM.
The figure for `CO[C@H]1CC[C@H](N2C(=O)CNc3ncc(-c4ccc(-c5nc[nH]n5)nc4)nc32)CC1` [Example 171, 7-(6-(1H-1,2,4-triazol-3-yl)pyridin-3-yl)-1-(trans-4-methoxycyclohexyl)-3,4-dihydropyrazino[2,3-b]pyrazin-2(1H)-one] is 0.005 to 250 nM; for `CC(C)N1C(=O)CNc2ncc(-c3ccc(-c4nc[nH]n4)nc3)nc21` [Example 172, 7-(6-(1H-1,2,4-triazol-3-yl)pyridin-3-yl)-1-isopropyl-3,4-dihydropyrazino[2,3-b]pyrazin-2(1H)-one] it is 0.005 to 250 nM.
In the case of `CO[C@H]1CC[C@H](N2C(=O)CNc3ncc(-c4cc(F)c(-c5nc[nH]n5)cc4C)nc32)CC1` [Example 173, 7-(5-fluoro-2-methyl-4-(1H-1,2,4-triazol-3-yl)phenyl)-1-(trans-4-methoxycyclohexyl)-3,4-dihydropyrazino[2,3-b]pyrazin-2(1H)-one], the half-maximal inhibitory concentration (IC50) lay within 0.005 to 250 nM.
The same measure for `Cc1cc(-c2nc[nH]n2)c(F)cc1-c1cnc2c(n1)N([C@H]1CC[C@H](O)CC1)C(=O)CN2` [Example 174, 7-(5-fluoro-2-methyl-4-(1H-1,2,4-triazol-3-yl)phenyl)-1-(trans-4-hydroxycyclohexyl)-3,4-dihydropyrazino[2,3-b]pyrazin-2(1H)-one]: 0.005 to 250 nM; for `COCCN1C(=O)CNc2ncc(-c3cc(F)c(-c4nc[nH]n4)cc3C)nc21` [Example 175, 7-(5-fluoro-2-methyl-4-(1H-1,2,4-triazol-3-yl)phenyl)-1-(2-methoxyethyl)-3,4-dihydropyrazino[2,3-b]pyrazin-2(1H)-one]: 0.005 to 250 nM; for `Cc1cc(-c2nc[nH]n2)c(F)cc1-c1cnc2c(n1)N(C(C)C)C(=O)CN2` [Example 176, 7-(5-fluoro-2-methyl-4-(1H-1,2,4-triazol-3-yl)phenyl)-1-isopropyl-3,4-dihydropyrazino[2,3-b]pyrazin-2(1H)-one]: 0.005 to 250 nM.
The figure for `CCN1C(=O)CNc2ncc(-c3cc(F)c(-c4nc[nH]n4)cc3C)nc21` [Example 177, 1-ethyl-7-(5-fluoro-2-methyl-4-(1H-1,2,4-triazol-3-yl)phenyl)-3,4-dihydropyrazino[2,3-b]pyrazin-2(1H)-one] is 0.005 to 250 nM.
The same measure for `O=C1CNc2ncc(-c3ccnc(O)c3)nc2N1CCC1CCOCC1` [Example 178, 7-(2-hydroxypyridin-4-yl)-1-(2-(tetrahydro-2H-pyran-4-yl)ethyl)-3,4-dihydropyrazino[2,3-b]pyrazin-2(1H)-one]: 500 to 1000 nM.
Consider `Cc1cc(-c2nc[nH]n2)ncc1-c1cnc2c(n1)N(C(C)C)C(=O)CN2` [Example 179, 1-isopropyl-7-(4-methyl-6-(1H-1,2,4-triazol-3-yl)pyridin-3-yl)-3,4-dihydropyrazino[2,3-b]pyrazin-2(1H)-one], for which the concentration for half-maximal inhibition (IC50) lay within 0.005 to 250 nM.
The same measure for `Cc1cc(C(N)=O)ncc1-c1cnc2c(n1)N(C(C)C)C(=O)CN2` [Example 180, 5-(8-isopropyl-7-oxo-5,6,7,8-tetrahydropyrazino[2,3-b]pyrazin-2-yl)-4-methylpicolinamide]: 0.005 to 250 nM.
The same measure for `O=C1CNc2ncc(-c3cccc4[nH]ncc34)nc2N1CCC1CCOCC1` [Example 181, 7-(1H-indazol-4-yl)-1-(2-(tetrahydro-2H-pyran-4-yl)ethyl)-3,4-dihydropyrazino[2,3-b]pyrazin-2(1H)-one]: 0.005 to 250 nM; for `Nc1ncc(-c2cnc3c(n2)N(CCC2CCOCC2)C(=O)CN3)cn1` [Example 182, 7-(2-aminopyrimidin-5-yl)-1-(2-(tetrahydro-2H-pyran-4-yl)ethyl)-3,4-dihydropyrazino[2,3-b]pyrazin-2(1H)-one]: 250 to 500 nM.
The figure for `Nc1cc(-c2cnc3c(n2)N(CCC2CCOCC2)C(=O)CN3)ccn1` [Example 183, 7-(2-aminopyridin-4-yl)-1-(2-(tetrahydro-2H-pyran-4-yl)ethyl)-3,4-dihydropyrazino[2,3-b]pyrazin-2(1H)-one] is 500 to 1000 nM; for `CNc1ccc(-c2cnc3c(n2)N(CCC2CCOCC2)C(=O)CN3)cn1` [Example 184, 7-(6-(methylamino)pyridin-3-yl)-1-(2-(tetrahydro-2H-pyran-4-yl)ethyl)-3,4-dihydropyrazino[2,3-b]pyrazin-2(1H)-one] it is 0.005 to 250 nM.
Turning to `O=C1CNc2ncc(-c3ccc(O)nc3)nc2N1CCC1CCOCC1` [Example 185, 7-(6-hydroxypyridin-3-yl)-1-(2-(tetrahydro-2H-pyran-4-yl)ethyl)-3,4-dihydropyrazino[2,3-b]pyrazin-2(1H)-one], the IC50 fell in the range of 1000 to 10000 nM.
The figure for `COCCN1C(=O)CNc2ncc(-c3ccc(-c4cc[nH]n4)cc3)nc21` [Example 186, 7-(4-(1H-pyrazol-3-yl)phenyl)-1-(2-methoxyethyl)-3,4-dihydropyrazino[2,3-b]pyrazin-2(1H)-one] is 0.005 to 250 nM; for `O=C1CNc2ncc(-c3cccnc3)nc2N1CCC1CCOCC1` [Example 187, 7-(pyridin-3-yl)-1-(2-(tetrahydro-2H-pyran-4-yl)ethyl)-3,4-dihydropyrazino[2,3-b]pyrazin-2(1H)-one] it is 500 to 1000 nM; for `COCCN1C(=O)CNc2ncc(-c3cccc4[nH]ncc34)nc21` [Example 188, 7-(1H-indazol-4-yl)-1-(2-methoxyethyl)-3,4-dihydropyrazino[2,3-b]pyrazin-2(1H)-one] it is 1000 to 10000 nM.
The same measure for `COCCN1C(=O)CNc2ncc(-c3ccc4cn[nH]c4c3)nc21` [Example 189, 7-(1H-indazol-6-yl)-1-(2-methoxyethyl)-3,4-dihydropyrazino[2,3-b]pyrazin-2(1H)-one]: 1000 to 10000 nM.
The figure for `O=C1CNc2ncc(-c3cncnc3)nc2N1CCC1CCOCC1` [Example 190, 7-(pyrimidin-5-yl)-1-(2-(tetrahydro-2H-pyran-4-yl)ethyl)-3,4-dihydropyrazino[2,3-b]pyrazin-2(1H)-one] is 1000 to 10000 nM.
